According to PubChem BioAssay (NCI):
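Step 1: Grow cells in 96-well plates. Step 2: Expose to compound for 48 hours at 5 concentrations. Step 3: Interpolate endpoints linearly; if unreached, use highest concentration. GI50 marks 50% less growth. TGI: concentration producing complete growth inhibition.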

Experiments:
Assay in all cases: inhibition of tumour cell growth, NCI panel, 48 h
[1] = tested on: K-562 leukemia
[2] = tested on: IGROV1 ovarian
[3] = tested on: NCI/ADR-RES ovarian
[4] = tested on: SK-MEL-2 melanoma
[5] = tested on: HCT-116 colon
[6] = tested on: LOX IMVI melanoma
[7] = tested on: SK-MEL-28 melanoma
[8] = tested on: OVCAR-5 ovarian
[9] = tested on: EKVX NSCLC
[10] = tested on: SR leukemia

| Compound | TGI [1] | TGI [2] | TGI [3] | TGI [4] | TGI [5] | TGI [6] | TGI [7] | TGI [8] | TGI [9] | TGI [10] | GI50 [3] | GI50 [4] | GI50 [5] | GI50 [6] | GI50 [7] | GI50 [8] | GI50 [9] |
| --- | --- | --- | --- | --- | --- | --- | --- | --- | --- | --- | --- | --- | --- | --- | --- | --- | --- |
| CCc1c(O)cc(=O)oc1-c1ccc(OC)c(OC)c1 | > 100 µM | > 100 µM | > 100 µM | > 100 µM | > 100 µM | > 100 µM | > 100 µM | > 100 µM | > 100 µM | – | – | – | – | – | – | – | – |
| O=C(/C=C/c1ccc(Cl)cc1)Oc1ccc(C=C2CCC/C(=C\c3ccc(OC(=O)/C=C/c4ccc(Cl)cc4)cc3)C2=O)cc1 | > 100 µM | > 100 µM | > 100 µM | > 100 µM | > 100 µM | > 100 µM | > 100 µM | > 100 µM | > 100 µM | – | – | – | – | – | – | – | – |
| O=C(c1ccco1)N(C(=O)N1CCCCC1)c1ccccc1 | > 100 µM | > 100 µM | > 100 µM | > 100 µM | > 100 µM | > 100 µM | > 100 µM | > 100 µM | > 100 µM | – | – | – | – | – | – | – | – |
| COCOc1ccc(C(=O)Oc2cccc3c2OC(C)(C)O3)c(OCOC)c1 | > 100 µM | > 100 µM | > 100 µM | – | > 100 µM | > 100 µM | > 100 µM | > 100 µM | > 100 µM | – | – | – | – | – | – | – | – |
| NC1=CC(=O)c2c(O)ccc(O)c2C1=O | > 50.5 µM | 29.5 µM | 68.2 µM | 32.6 µM | 22.3 µM | 33.1 µM | 38 µM | 35.3 µM | 36.2 µM | – | – | – | – | – | – | – | – |
| O=C(/C=C/c1ccc(O)c(O)c1)OCCc1ccc2ccccc2c1 | – | 10.4 µM | 18.3 µM | 4.35 µM | 17.9 µM | 20.8 µM | 21.8 µM | 29.7 µM | 28.7 µM | – | – | – | – | – | – | – | – |
| Cc1nc(N)c(N2CCN(C#N)CC2)c(=O)[nH]1 | > 100 µM | – | > 100 µM | > 100 µM | > 100 µM | > 100 µM | > 100 µM | > 100 µM | > 100 µM | > 100 µM | – | – | – | – | – | – | – |
| Nc1ncnc2c1nnn2C1C=CC(CP(=O)(O)O)C1 (centres undefined) | – | > 100 µM | > 100 µM | > 100 µM | > 100 µM | > 100 µM | > 100 µM | > 100 µM | > 100 µM | – | – | – | – | – | – | – | – |
| COc1ccc(C2Oc3ccc(Cl)cc3C=C2[N+](=O)[O-])cc1 (centres undefined) | > 100 µM | > 100 µM | > 100 µM | – | > 100 µM | > 100 µM | > 100 µM | > 100 µM | > 100 µM | > 100 µM | – | – | – | – | – | – | – |
| Cc1ccc(-c2cc(-c3ccco3)c(C#N)c(=S)[nH]2)cc1 | > 100 µM | > 100 µM | > 100 µM | – | > 100 µM | > 100 µM | > 100 µM | > 100 µM | > 100 µM | > 100 µM | – | – | – | – | – | – | – |
| COC(=O)c1ccccc1C1CN=NC12Cc1c(ccc(C)c1C)C2=O (centres undefined) | > 100 µM | > 100 µM | > 100 µM | > 100 µM | > 100 µM | > 100 µM | > 100 µM | > 100 µM | > 100 µM | – | – | – | – | – | – | – | – |
| C[C@]12CCC3[C@@H](CCC45OC4C(=O)CC[C@]35C)C1Cc1cnn(-c3ccc(F)cc3)c1N2 (some centres undefined) | 66.8 µM | – | – | > 100 µM | 29 µM | 31.9 µM | 85.2 µM | – | > 100 µM | > 100 µM | – | – | – | – | – | – | – |
| O=[N+]([O-])c1cccc(C2=NN(c3ccccc3)C3c4cc(Br)ccc4OCC23)c1 (centres undefined) | > 100 µM | > 100 µM | – | > 100 µM | > 100 µM | > 100 µM | > 100 µM | > 100 µM | > 100 µM | – | – | – | – | – | – | – | – |
| N#CNC(N)=NCc1ccccc1 | – | > 100 µM | – | > 100 µM | > 100 µM | > 100 µM | > 100 µM | > 100 µM | – | > 100 µM | – | – | – | – | – | – | – |
| CC1=NN(C(=O)Cc2ccccc2)C(=O)/C1=C\c1ccc(O)cc1 | > 100 µM | > 100 µM | – | > 100 µM | > 100 µM | > 100 µM | > 100 µM | > 100 µM | > 100 µM | – | – | – | – | – | – | – | – |
| CC(=O)O[C@@H](c1nccn1Cc1ccccc1)[C@H]1OC(C)(C)O[C@@H]1[C@H]1COC(C)(C)O1 | > 100 µM | > 100 µM | > 100 µM | > 100 µM | > 100 µM | > 100 µM | > 100 µM | > 100 µM | > 100 µM | – | – | – | – | – | – | – | – |
| CC1CC(N2CCOCC2)=Nc2ccccc2N1C (centres undefined) | > 100 µM | > 100 µM | > 100 µM | > 100 µM | > 100 µM | – | > 100 µM | > 100 µM | > 100 µM | – | – | – | – | – | – | – | – |
| CCOC(=O)c1c(N2CCCC2)[nH]c(=O)c(C(c2ccc(OC)cc2)c2c(O)c(C(=O)OCC)c(N3CCCC3)[nH]c2=O)c1O | > 100 µM | – | > 100 µM | 53.9 µM | > 100 µM | > 100 µM | > 100 µM | > 100 µM | > 100 µM | > 100 µM | – | – | – | – | – | – | – |
| CCCCCCCC(=O)OCC(COC(=O)C(C)(C)C)OC(=O)Cc1ccccc1 (centres undefined) | > 100 µM | > 100 µM | – | – | > 100 µM | > 100 µM | > 100 µM | > 100 µM | – | – | – | – | – | – | – | – | – |
| COc1cc(C)c(CC/C(C)=C/Cc2cc(O)ccc2O)c(C)c1C | > 25 µM | > 25 µM | – | > 25 µM | > 25 µM | – | > 25 µM | – | > 25 µM | > 25 µM | – | – | – | – | – | – | – |
| CC(=O)c1ccc(Oc2c3ccccc3nc3ccccc23)cc1 | 20.1 µM | 17.4 µM | 30.4 µM | 21.4 µM | 8.81 µM | 17.9 µM | 28.5 µM | 23.9 µM | 35.1 µM | – | – | – | – | – | – | – | – |
| NS(=O)(=O)c1nnc(NC(=O)N(c2ccccc2)c2ccccc2)s1 | > 100 µM | 52.6 µM | 44.4 µM | 89.1 µM | 83.8 µM | 40.2 µM | > 100 µM | 70.1 µM | 78.2 µM | – | – | – | – | – | – | – | – |
| CN(C)C(=O)C(F)(F)C(c1ccc(F)cc1)C1C(=O)N(C)C(=O)N(C)C1=O (centres undefined) | – | – | > 100 µM | > 100 µM | > 100 µM | > 100 µM | > 100 µM | > 100 µM | > 100 µM | – | – | – | – | – | – | – | – |
| CCCCCCCCCCCCCCCCCCOc1ccccc1CC(=O)NCC[N+]1(C)CCOCC1 | – | – | 56.8 µM | 34.6 µM | > 100 µM | 42.4 µM | 49.8 µM | 4.85 µM | 56.2 µM | – | 18.3 µM | 13.9 µM | 4.71 µM | 3.51 µM | 7.69 µM | 1.89 µM | 8.62 µM |
